Experimental data from patent US20160287514A1 (PIERRE FABRE MEDICAMENT, priority 2012, published 2016).
Read-outs that look alike come from different tables or passages of the source.

Key:
pharyngitis = details: ibuprofen 400 mg; meta-analysis; cited from earlier work
[1] = in vivo; cited from earlier work
[2] = assay type: physicochemical

In the case of `CC(C)Cc1ccc(C(C)C(=O)O)cc1` (centres unmarked) [ibuprofen, 2-(4-(2-methylpropyl)phenyl)propanoic acid], the “pain relief in pharyngitis compared with acetaminophene (1000 mg, paracetamol)” value (pharyngitis) is given as “significant superiority”.
For `CC(C(=O)O)c1ccc(-c2ccccc2)c(F)c1` (centres unmarked) [flurbiprofen], the half-life [1] is given as 4 h.
For ibuprofen lysinate, the “total content of impurities” value ([2]; T0, closed pill box) was <0.1 percentage, the “total content of impurities” value ([2]; T1 month, 25° C., RH 60, closed pill box) was 0.15 percentage and the “total content of impurities” value ([2]; T1 month, 40° C., RH 75, closed pill box) was 0.19 percentage. For the same compound, the “total content of impurities” value ([2]; T1 month, 40° C., RH 75, open pill box) was 0.53 percentage, the “total content of impurities” value ([2]; T2 months, 25° C., RH 60, closed pill box) was 0.15 percentage and the “total content of impurities” value ([2]; T2 months, 40° C., RH 75, closed pill box) was 0.21 percentage. The “total content of impurities” value ([2]; T2 months, 40° C., RH 75, open pill box) was 2.21 percentage, the “total content of impurities” value ([2]; T3 months, 25° C., RH 60, closed pill box) was 0.17 percentage and the “total content of impurities” value ([2]; T3 months, 40° C., RH 75, closed pill box) was 0.27 percentage. The “total content of impurities” value ([2]; T3 months, 40° C., RH 75, open pill box) was 3.10 percentage and the “total content of impurities” value ([2]; T15 d, 40° C., RH 75, closed pill box) was 0.28 percentage.
With `CC(C)Cc1ccc(C(C)C(=O)O)cc1.O.O.[Na]` (centres unmarked) [Sod, ibuprofen sodium dihydrate] the “content of impurities compared among the salts” value ([2]; regardless of the long term temperature and humidity conditions) was “lowest content of impurities”.
